According to ChEMBL document CHEMBL5512623, “Discovery of the novel and potent histamine H1 receptor antagonists for treatment of allergic diseases” (Eur J Med Chem, 2024):

Key:
[1] = target: Muscarinic acetylcholine receptor M3 (Homo sapiens, UniProt P20309); assay: Antagonist activity at human muscarinic M3 receptor expressed in PathHunter U2OS CHRM3 beta-arrestin cells preincubated for 30 mins followed by agonist addition at 6 times EC80 and measured after 90 to 180 mins by PathHunter assay; assay type: functional, cell-based
[2] = target: Voltage-gated inwardly rectifying potassium channel KCNH2 (Homo sapiens, UniProt Q12809); assay: Inhibition of hERG in HEK293 cells measured after 5 mins by patch-clamp assay
[3] = target: Histamine H1 receptor (Homo sapiens, UniProt P35367); assay: Antagonist activity at human H1 receptor expressed in PathHunter CHO-K1 HRH1 beta-arrestin cells preincubated for 30 mins followed by agonist addition at 6 times EC80 and measured after 90 to 180 mins by PathHunter assay; assay type: functional, cell-based
Sequence of Histamine H1 receptor (P35367 whole entry): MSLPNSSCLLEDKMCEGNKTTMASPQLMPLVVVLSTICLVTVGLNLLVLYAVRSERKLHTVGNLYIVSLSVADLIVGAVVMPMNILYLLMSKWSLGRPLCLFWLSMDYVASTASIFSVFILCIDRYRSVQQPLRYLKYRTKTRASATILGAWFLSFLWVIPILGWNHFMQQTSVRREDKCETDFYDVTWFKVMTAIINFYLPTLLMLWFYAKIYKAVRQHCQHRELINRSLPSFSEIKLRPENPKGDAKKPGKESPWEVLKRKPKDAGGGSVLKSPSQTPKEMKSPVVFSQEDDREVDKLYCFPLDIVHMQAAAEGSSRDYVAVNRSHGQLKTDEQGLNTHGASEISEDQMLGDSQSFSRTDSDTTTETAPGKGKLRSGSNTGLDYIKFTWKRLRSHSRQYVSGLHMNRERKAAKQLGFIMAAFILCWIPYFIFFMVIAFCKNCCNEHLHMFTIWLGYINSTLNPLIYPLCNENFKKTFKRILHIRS

Sequence of Muscarinic acetylcholine receptor M3 (P20309 whole entry): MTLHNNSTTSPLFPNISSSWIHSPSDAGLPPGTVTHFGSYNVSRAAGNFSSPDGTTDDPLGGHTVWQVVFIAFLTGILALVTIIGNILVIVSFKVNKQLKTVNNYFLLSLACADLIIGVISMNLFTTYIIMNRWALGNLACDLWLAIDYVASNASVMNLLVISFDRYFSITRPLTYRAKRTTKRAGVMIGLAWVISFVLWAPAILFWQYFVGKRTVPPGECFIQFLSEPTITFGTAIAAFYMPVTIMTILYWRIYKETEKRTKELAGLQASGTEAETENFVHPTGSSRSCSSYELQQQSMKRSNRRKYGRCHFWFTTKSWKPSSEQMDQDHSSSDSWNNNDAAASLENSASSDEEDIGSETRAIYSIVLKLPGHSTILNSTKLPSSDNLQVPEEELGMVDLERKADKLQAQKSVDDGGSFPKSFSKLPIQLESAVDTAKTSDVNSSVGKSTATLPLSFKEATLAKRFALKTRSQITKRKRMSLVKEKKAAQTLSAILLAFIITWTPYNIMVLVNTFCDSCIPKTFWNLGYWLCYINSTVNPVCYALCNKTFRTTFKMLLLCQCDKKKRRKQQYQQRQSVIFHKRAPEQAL
Sequence of Voltage-gated inwardly rectifying potassium channel KCNH2 (Q12809 whole entry): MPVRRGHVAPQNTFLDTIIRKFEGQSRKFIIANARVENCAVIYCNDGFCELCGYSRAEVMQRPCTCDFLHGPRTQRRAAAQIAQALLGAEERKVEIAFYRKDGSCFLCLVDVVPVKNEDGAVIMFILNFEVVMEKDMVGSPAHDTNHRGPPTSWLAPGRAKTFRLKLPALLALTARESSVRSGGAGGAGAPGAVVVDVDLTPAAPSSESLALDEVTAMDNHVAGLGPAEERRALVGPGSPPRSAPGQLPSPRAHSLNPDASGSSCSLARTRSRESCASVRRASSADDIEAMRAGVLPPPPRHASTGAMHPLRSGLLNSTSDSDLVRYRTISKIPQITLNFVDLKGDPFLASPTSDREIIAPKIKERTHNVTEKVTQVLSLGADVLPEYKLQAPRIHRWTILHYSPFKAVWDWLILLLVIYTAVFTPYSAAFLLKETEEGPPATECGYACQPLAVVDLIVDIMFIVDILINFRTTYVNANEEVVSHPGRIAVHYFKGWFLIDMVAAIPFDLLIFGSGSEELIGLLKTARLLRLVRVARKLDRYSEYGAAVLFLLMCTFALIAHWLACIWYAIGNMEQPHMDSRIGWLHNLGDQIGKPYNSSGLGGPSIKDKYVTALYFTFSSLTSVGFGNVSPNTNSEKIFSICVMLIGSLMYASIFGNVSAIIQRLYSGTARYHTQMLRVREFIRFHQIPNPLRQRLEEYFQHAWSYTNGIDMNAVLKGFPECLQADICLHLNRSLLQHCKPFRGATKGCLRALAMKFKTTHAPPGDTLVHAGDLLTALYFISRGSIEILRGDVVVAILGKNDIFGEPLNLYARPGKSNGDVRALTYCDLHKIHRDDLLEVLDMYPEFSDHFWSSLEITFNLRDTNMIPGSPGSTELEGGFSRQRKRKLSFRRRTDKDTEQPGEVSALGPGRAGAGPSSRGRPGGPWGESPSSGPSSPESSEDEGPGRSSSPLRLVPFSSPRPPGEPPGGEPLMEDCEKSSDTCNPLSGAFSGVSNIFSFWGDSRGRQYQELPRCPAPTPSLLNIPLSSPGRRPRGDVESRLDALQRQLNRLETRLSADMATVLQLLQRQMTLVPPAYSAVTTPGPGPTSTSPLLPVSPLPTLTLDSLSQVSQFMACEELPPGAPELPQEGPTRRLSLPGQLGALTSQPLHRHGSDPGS

Row | IC50 [1] [µM] | IC50 [3] [µM] | SMILES | IC50 [2] [µM]
1 | > 10 |  | O=C(CCO)N1CCC(=C2c3ccc(Cl)cc3CCc3cccnc32)CC1 | 
2 | > 10 |  | NC(=O)c1cn(CCN2CCC(=C3c4ccc(Cl)cc4CCc4cccnc43)CC2)nn1 | 6.36
3 | > 10 |  | OC[C@H](O)CN1CCC(=C2c3ccc(Cl)cc3CCc3cccnc32)CC1 | 2.64
4 | > 10 | 0.0572 | CC(C)(C(=O)O)c1cccc(CC(O)CN2CCC(=C3c4ccc(Cl)cc4CCc4cccnc43)CC2)c1 (configuration not stated) | 
